For series [1], the system named is cervical epithelioid carcinoma (HeLa). The series can be described thus: MTT cytotoxicity assay, HeLa. The class given is cell-based, human. Conditions: dose required to inhibit 50% cellular growth for 72 h. As for the experimental part: (§1) Example 2 describes the in vitro cytotoxicity, which is indicative of the induction of cell death and/or inhibition of cellular proliferation of cancer cells, of the Au(III)-NHC complexes on cervical epithelioid carcinoma, hepatocellular carcinoma, leukemia, nasopharyngeal carcinoma, breast carcinoma, melanoma, and lung carcinoma.
(§2) By means of MTT assays, the cytotoxic properties of 1-11 were determined toward some established human cancer cell lines including hepatocellular carcinoma (HepG2), cervical epithelioid carcinoma (HeLa), lung carcinoma (NCI-H460), breast cancer (MCF-7), melanoma (B 16) and nasopharyngeal carcinoma (SUNE1).

For series [2], the system named is nasopharyngeal carcinoma (SUNE1). The series can be described thus: MTT cytotoxicity assay, SUNE1. The class given is cell-based, human. Conditions: 72 h. As for the experimental part:
as §1, §2

The subject of series [3] is hepatocellular carcinoma (HepG2). The series can be described thus: MTT cytotoxicity assay, HepG2. The class given is cell-based, human. The conditions noted are these: 72 h. As for the experimental part:
as §1, §2

For another series, the system named is melanoma (B 16). Description: MTT cytotoxicity assay, B16. The class given is cell-based, mouse. The conditions noted are these: 72 h. The protocol: as §1, §2
In series [4] the test system is lung carcinoma (NCI-H460). Description: MTT cytotoxicity assay, NCI-H460. The class given is cell-based, human. Conditions: 72 h. As for the experimental part: as §1, §2
In another series the test system is breast cancer (MCF-7). Description: MTT cytotoxicity assay, MCF-7. The class given is cell-based, human. The conditions noted are these: 72 h. As for the experimental part: as §1, §2
Series [5] deals with Thioredoxin reductase (TrxR). The conditions noted are these: HeLa cells incubated for 1 h; compared with auranofin.
Method: Cell-based TrxR activity experiment was incorporated in our experiments. […] The cell lysates (10 μg proteins) were added to a buffer (100 μL) containing 100 mM potassium phosphate, pH 7.4, 1 mM EDTA and 0.2 mM NADPH. Reaction was initiated by adding 5,5′-dithiobis(2-nitrobenzoic acid) (DTNB, 3 mM final) and the TrxR activities were determined as increases in O.D. 410 nm in 10 min.
A short description of series [6]: Preliminary toxicity experiment in mice. The class given is in vivo.
A further series relates to HeLa xenograft. Description: In vivo tumor inhibition, mice bearing HeLa xenograft. Conditions: 3 mg/kg, nude mice bearing HeLa xenograft.
For another series, the system named is PARP, caspase 3, 7 and 9. Description: Western blotting of apoptosis related proteins in HeLa cells. The class given is cell-based, human. The conditions noted are these: 15 μM, 48 h. As for the experimental part: Meanwhile, considerable attention has been paid on apoptosis for which can lead cancer cell death. After treating HeLa cells with 15 μM of complex 9 for 48 h, apoptosis related PARP, caspase 3, 7 and 9 were activated according to western blotting results (FIG. 4b).

Another series concerns HeLa cells. The series can be described thus: Fluorescence microscopic examination of HeLa cells. The class given is cell-based, human. Conditions: 20 μM, 10 min, ex 340 nm. As for the experimental part:
Fluorescence microscopic examination 9: HeLa cells (1×10^5 cells) were seeded in a one chamber slide (Nalgene; Nunc) with culture medium (2 mLwell^−1) and incubated at 37° C. in a humidified atmosphere of 5% CO2/95% air for 24 h. After treating with 9 (20 μM, 1 mL) for 10 min, cells were directly exposed for fluorescent imaging without removing the old medium. The bright-field and fluorescent images (ex: 340 nm) were examined in Axiovert 200 (Carl Zeiss) and in an Axio Vision Rel. 4.5 imaging system (Carl Zeiss).

Method for HeLa xenograft: Female BALB/cAnN-nu (Nude), 5-7 weeks old, were purchased from the Charles River Laboratories (Wilmington, Mass.) and cared for according to the guidelines of the Laboratory Animal Unit of the University of Hong Kong (HKU). All animal experiments were conducted under the guidelines approved by the Committee on the Use of Live Animals in Teaching and Research of HKU. To establish the HeLa xenograft model, 4×10^6 HeLa cells suspended in 100 μl of PBS were inoculated into the back flanks of female BALB/cAnN-nu (Nude) mice by subcutaneous injection. When the tumor volumes reached about 50 mm^3 (4 days after tumor inoculation), the mice were randomly divided into different treatment groups (3 mg/kg of 5 or solvent control). Complex 5 was reconstituted in PET diluent (60% polyethylene glycol 400, 30% ethanol, 10% Tween 80). Complex 5 dissolved in PET diluent and then diluted in PBS or PBS supplemented with equal amount of PET were injected into the mice by intratumoral injection once every three days until the mice were sacrificed. In this model, the volume of PET diluent injected into each mouse was ≦6 μl. Tumor sizes were measured once every 3 times a week, and tumor volume (V) was calculated by the formula V=ab^2×0.52, where a and b were the longest and the shortest diameters of the xenografted tumor. The tumor inhibition was calculated according to the following formula: Inhibition percentage=[1−(V−V0)/(V′−V0′)]×100% where V and V′ are the tumor volumes of 5 treatment and solvent control, respectively. V0 and V0′ are the initial tumor volumes of the 5 treatment and solvent control, respectively.

Turning to `Cn1cc[n+](C)[c]1[Au-]12[n]3ccnc3-c3cccc([n+]31)-c1ncc[n]12.O=S(=O)([O-])C(F)(F)F` [Complex 1], the IC50 was 32.9 ± 1.3 µM in [1]; 28.7 ± 7.3 µM in series [2]; 36.2 ± 2.2 µM in series [3]; 30.6 ± 0.3 µM in the series on melanoma (B 16); 55 ± 8.5 µM in [4]; 18.4 ± 0.3 µM with breast cancer (MCF-7). Moreover, in [5], the “Inhibition of cell-based TrxR activity” value is “can inhibit cell-based TrxR activity similarly to auranofin”.
Turning to `CCCCCCCCn1cc[n+](C)[c]1[Au-]12[n]3ccnc3-c3cccc([n+]31)-c1ncc[n]12.O=S(=O)([O-])C(F)(F)F` [Complex 3], the IC50 in [1] amounted to 14 ± 0.3 µM; in series [2], 8.9 ± 0.6 µM; in series [3] it was 14.7 ± 1.5 µM; in the series on melanoma (B 16), 3.8 ± 0.1 µM; in series [4], 17.3 ± 0.3 µM; in the series with breast cancer (MCF-7), 8.5 ± 0.2 µM.
Regarding `CCCCCCCCCCn1cc[n+](C)[c]1[Au-]12[n]3ccnc3-c3cccc([n+]31)-c1ncc[n]12.O=S(=O)([O-])C(F)(F)F` [Complex 4], the IC50 came out at 8.2 µM in series [1]; 5.5 ± 0.3 µM in series [2]; 11.8 ± 1.2 µM in series [3]; 1.6 ± 0.1 µM in the series on melanoma (B 16); 9.7 ± 0.4 µM in [4]; 6.5 ± 0.5 µM with breast cancer (MCF-7).
Turning to `CCCCCCCCCCCCCCCCn1cc[n+](C)[c]1[Au-]12[n]3ccnc3-c3cccc([n+]31)-c1ncc[n]12.O=S(=O)([O-])C(F)(F)F` [Complex 5], the IC50 came to 1.4 ± 0.2 µM in series [1]; 28.6 ± 0.3 µM in series [2]; 3.3 ± 0.5 µM in series [3]; 2.2 ± 0.1 µM in the series with melanoma (B 16); 1.4 ± 0.1 µM in series [4]; 2.9 ± 0.2 µM with breast cancer (MCF-7). Further, the “Toxicity to mice at 7 mg/kg (body weight)” value in series [6] (7 mg/kg) is recorded as “slight drop of body weight”. The “Toxicity to mice at 20 mg/kg” value in series [6] (20 mg/kg) is recorded as “toxic to mice”. The “Tumor inhibition after 11 days” value in the series on HeLa xenograft (intratumoral injection once every three days, 11 days (p<0.05)) is “up to 60%”. The “Tumor inhibition after 14 days” value in the series on HeLa xenograft (intratumoral injection once every three days, 14 days (p<0.01)) is recorded as at most 76%. The “Mouse death / mouse body weight loss during treatment” value with HeLa xenograft (intratumoral) is on record as “No mouse death or mouse body weight loss was found”.
In the case of `CCCCn1cc[n+](CCCC)[c]1[Au-]12[n]3ccnc3-c3cccc([n+]31)-c1ncc[n]12.O=S(=O)([O-])C(F)(F)F` [Complex 6], the half-inhibitory concentration (IC50) in [1] was found to be 13 ± 1.6 µM; in [2] it was 9.9 ± 0.2 µM; in series [3] it was 28.7 ± 5.9 µM; in the series with melanoma (B 16) it was 8.3 ± 0.2 µM; in series [4], 7.9 ± 1.1 µM; with breast cancer (MCF-7), 12.9 ± 2 µM.
As for `CCCCCCn1cc[n+](CCCCCC)[c]1[Au-]12[n]3ccnc3-c3cccc([n+]31)-c1ncc[n]12.O=S(=O)([O-])C(F)(F)F` [Complex 7], the IC50 in series [1] came out at 8.2 µM; in series [2], 36.8 ± 1.6 µM; in series [3], 9.1 ± 0.3 µM; with melanoma (B 16), 7.7 ± 1 µM; in series [4] it was 34.6 ± 3.1 µM; in the series on breast cancer (MCF-7), 8.6 ± 0.1 µM.
`C[n+]1ccn(CCC[P+](c2ccccc2)(c2ccccc2)c2ccccc2)[c]1[Au-]12[n]3ccnc3-c3cccc([n+]31)-c1ncc[n]12.O=S(=O)([O-])C(F)(F)F.O=S(=O)([O-])C(F)(F)F` [Complex 8]: the half-inhibitory concentration (IC50) in series [1] amounted to 77.4 ± 1.8 µM; in series [2] it was 47.3 ± 6.2 µM; in the series on melanoma (B 16), 36.8 ± 0.9 µM; in series [4] it was 65.4 ± 1.1 µM; in the series on breast cancer (MCF-7) it was 49.7 ± 3 µM.
As to `Cn1cc[n+](C)[c]1[Au-]12[n]3c(nc4ccccc43)-c3cccc([n+]31)-c1nc3ccccc3[n]12.O=S(=O)([O-])C(F)(F)F` [Complex 9], the IC50 amounted to 14.4 µM in series [1]; 11.2 ± 0.6 µM in series [2]; 18 ± 0.5 µM in [3]; 12.4 ± 0.1 µM in the series with melanoma (B 16); 11.2 ± 0.7 µM in series [4]; 11.9 ± 1 µM in the series with breast cancer (MCF-7). For the same molecule, the “Activation of apoptosis related PARP, caspase 3, 7 and 9 (western blotting)” value in the series with PARP, caspase 3, 7 and 9 was “activated”. In the series on HeLa cells, the “Cellular fluorescence (localisation)” value is given as “significant blue fluorescence was detected in cytoplasm but not in nucleus or extracellular environment”. Moreover, the “Inhibition of cell-based TrxR activity” value in series [5] is “can inhibit cell-based TrxR activity similarly to auranofin”.
Consider `CCCCn1cc[n+](CCCC)[c]1[Au-]12[n]3c(nc4ccccc43)-c3cccc([n+]31)-c1nc3ccccc3[n]12.O=S(=O)([O-])C(F)(F)F` [Complex 10], for which the IC50 in series [1] is 9.2 ± 0.4 µM; in series [2] it was 5.2 ± 1.6 µM; in [3], 14.7 ± 1.1 µM; with melanoma (B 16) it was 5.2 ± 0.2 µM; in series [4] it was 5.5 ± 0.3 µM; with breast cancer (MCF-7), 8.7 ± 0.2 µM.
For the molecule `CCCCCCn1cc[n+](CCCCCC)[c]1[Au-]12[n]3c(nc4ccccc43)-c3cccc([n+]31)-c1nc3ccccc3[n]12.O=S(=O)([O-])C(F)(F)F` [Complex 11], the IC50 in series [1] is 8.4 ± 0.1 µM; in [2], 3.1 ± 0.3 µM; in [3], 2.6 ± 0.4 µM; with melanoma (B 16), 5.5 ± 0.1 µM; in [4], 5 ± 0.1 µM; in the series on breast cancer (MCF-7), 4 ± 0.1 µM.
